The text below walks through data of publication PMC5612938, “A multiple biomarker assay for quality assessment of botanical drugs using a versatile microfluidic chip” (Scientific Reports, 2017).

The assay addresses T1, ACE (from rabbit lung) (Oryctolagus cuniculus, UniProt P12822).
T1 construct: ACE (from rabbit lung); purchased Sigma-Aldrich; host or cells: rabbit lung
T1 sequence (P12822 34-1310): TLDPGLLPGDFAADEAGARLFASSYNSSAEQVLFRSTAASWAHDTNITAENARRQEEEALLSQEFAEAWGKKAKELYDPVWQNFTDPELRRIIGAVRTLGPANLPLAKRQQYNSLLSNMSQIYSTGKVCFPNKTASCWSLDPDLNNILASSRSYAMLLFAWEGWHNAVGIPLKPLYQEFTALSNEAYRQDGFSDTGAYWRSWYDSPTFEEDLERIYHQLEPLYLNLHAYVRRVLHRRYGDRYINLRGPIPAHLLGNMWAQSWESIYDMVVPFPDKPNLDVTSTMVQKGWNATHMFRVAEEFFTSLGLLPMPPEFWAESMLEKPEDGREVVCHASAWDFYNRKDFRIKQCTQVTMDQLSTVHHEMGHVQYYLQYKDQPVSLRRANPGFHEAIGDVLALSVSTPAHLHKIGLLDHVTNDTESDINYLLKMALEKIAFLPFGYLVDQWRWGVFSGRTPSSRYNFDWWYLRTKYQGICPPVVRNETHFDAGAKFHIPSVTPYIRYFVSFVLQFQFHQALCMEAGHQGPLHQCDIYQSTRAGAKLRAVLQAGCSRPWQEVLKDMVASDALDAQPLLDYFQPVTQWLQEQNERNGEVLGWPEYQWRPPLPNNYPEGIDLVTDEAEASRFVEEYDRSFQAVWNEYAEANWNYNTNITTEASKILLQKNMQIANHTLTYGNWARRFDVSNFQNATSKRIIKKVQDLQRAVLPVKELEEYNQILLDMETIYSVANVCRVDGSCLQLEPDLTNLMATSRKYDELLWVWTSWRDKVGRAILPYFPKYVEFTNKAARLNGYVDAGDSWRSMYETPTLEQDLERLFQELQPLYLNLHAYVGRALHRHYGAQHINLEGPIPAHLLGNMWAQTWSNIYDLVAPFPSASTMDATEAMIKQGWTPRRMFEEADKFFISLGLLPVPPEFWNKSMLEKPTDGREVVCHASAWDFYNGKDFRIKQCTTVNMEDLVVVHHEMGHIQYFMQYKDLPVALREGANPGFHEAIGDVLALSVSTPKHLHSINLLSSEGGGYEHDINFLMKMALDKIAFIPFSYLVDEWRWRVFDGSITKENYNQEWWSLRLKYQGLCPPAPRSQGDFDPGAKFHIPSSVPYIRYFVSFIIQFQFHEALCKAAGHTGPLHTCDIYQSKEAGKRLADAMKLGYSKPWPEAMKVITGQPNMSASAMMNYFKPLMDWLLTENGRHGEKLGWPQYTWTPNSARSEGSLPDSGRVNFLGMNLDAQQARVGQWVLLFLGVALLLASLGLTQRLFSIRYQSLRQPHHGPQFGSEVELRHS
In words: on-chip ACE inhibition assay (FAPGG hydrolysis, absorbance decrease 340 nm). Format: biochemical. As for the experimental part: To enhance the performance of the on-chip assay, experimental parameters such as concentrations of enzymes and substrates, substrate reaction time, and incubation time of samples and enzymes were stepwise optimized.
The optimized protocol was first applied to assess the quality of 11 batches of QSYQ intermediates (Table 1). Enzyme inhibition (in percentages) was employed as an indicator of drug quality and calculated according to the following equations: thrombin inhibition (%) = [1 − (AQSYQ/Ablank)] × 100; ACE inhibition (%) = [1 − (ΔAQSYQ/ΔAblank)] × 100; where AQSYQ and Ablank were the absorbance of the test sample and the blank sample after the enzymatic reaction (the background value was subtracted), and ΔAQSYQ and ΔAblank were the absorbance decrease between 0 min and 30 min of the samples.
Thrombin (from human plasma), ACE (from rabbit lung), FAPGG and captopril were purchased from Sigma-Aldrich (St. Louis, USA). […] AEBSF-HCl was purchased from Selleckchem (Houston, USA). Trizma base (Tris) was obtained from Sangon Biotech (Shanghai, China) and dimethyl sulfoxide (DMSO) from J&K Scientific (Beijing, China). All other chemicals were purchased from Sinopharm Chemical (Shanghai, China) unless otherwise indicated. 0.2 M Phosphate buffer (PB, pH 6.5), and 50 mM Tris-HCl buffer (200 mM NaCl, pH 8.3) were prepared as assay buffers for thrombin and ACE, respectively.
MBs (10 mg/mL) were diluted 10 times in PB or Tris-HCl buffer, and 10 μL of the diluted MBs (1 mg/mL) were injected into one channel of the chip using a syringe infusion pump (Harvard Apparatus, USA) and retained by an external magnet. Then, 10 μL of thrombin or ACE solution was added and incubated with MBs for two hours at room temperature to form enzyme-MB complexes. The magnet was manually controlled to move MBs back and forth to enhance the ratio of reaction. Subsequently, MBs were washed twice in assay buffer and magnetically transferred to the other channel through the fluidic bridge, whose opening and closing was controlled by a pneumatic valve. Next, 10 μL of sample solutions of tested drug and 10 μL of enzymatic substrate were sequentially infused to the channel by the pump and incubated with the enzyme. When the enzymatic reaction was finished, the MBs were retained in the channel, and air was injected into the channel from the inlet using a syringe to push all the reacted solution to a 384-well plate. […] Moreover, after detection, the reaction channel was washed three times by assay buffer to remove unbound constituents. 20 μL of 80% aqueous methanol was then injected and incubated with MBs for one hour to dissociate the bound constituents. The resulting solutions of replicates were combined, evaporated by a centrifugal evaporator, reconstituted in 80% aqueous methanol, centrifuged at 10,000 rpm for 10 min, and analyzed by LC-MS for chemical identification.

Consider `O=C(O)C(O)Cc1ccc(O)c(O)c1` (centres unmarked) [Danshensu], for which the “ACE inhibition (in words)” value (at tested concentrations) is listed as “showed ACE inhibitions”. This compound showed an inhibition rate (for ACE, maximum inhibition rate observed in the assay) of 64.2%.
